Measured values from patent publication US9156801B2, “2-substituted oleanolic acid derivative, method preparing for same, and application thereof” (HANGZHOU BENSHENG PHARMACEUTICAL CO., LTD., priority 2011, dated 2015).
In brackets after ≈: the same amount, converted by molar mass.

What was measured:
[1] = system: Hela cell line; test: solid tumor cell growth inhibition, MTT; assay type: cell-based; conditions: Homo sapiens, 72 h; for IC50: HeLa; for inhibition at 16 µg/mL: Hela, 16 μg/mL compound, read-out: IR (cell proliferation inhibition rate)
How it was run: (§1)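 MTT readout of living cells after 72 h compound exposure at 37° C, 5% CO2, following 24 h attachment of 4000 cells/well in DMEM high glucose plus 10% FBS. Inhibition rate was referenced to untreated wells as 0%.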

[2] = system: MGC 803 cell line; test: solid tumor cell growth inhibition, MTT; assay type: cell-based; conditions: Homo sapiens; for inhibition at 16 µg/mL: MGC 803, 16 μg/mL compound, 72 h, read-out: IR (cell proliferation inhibition rate); for IC50: MGC 803, 72 h
How it was run: as §1

[3] = system: CNE cell line; test: solid tumor cell growth inhibition, MTT; assay type: cell-based; conditions: Homo sapiens, 72 h; for inhibition at 16 µg/mL: 16 μg/mL compound, read-out: IR (cell proliferation inhibition rate)
How it was run: as §1

[4] = system: Becap37 cell line; test: solid tumor cell growth inhibition, MTT; assay type: cell-based; conditions: Homo sapiens; for inhibition at 16 µg/mL: Becap37, 16 μg/mL compound, 72 h, read-out: IR (cell proliferation inhibition rate); for IC50: Becap37, 72 h
How it was run: as §1

[5] = system: CaES-17 cell line; test: solid tumor cell growth inhibition, MTT; assay type: cell-based; conditions: Homo sapiens, CaEs17; for inhibition at 16 µg/mL: CaES-17, 16 μg/mL compound, 72 h, read-out: IR (cell proliferation inhibition rate); for IC50: CaES-17, 72 h
How it was run: as §1

[6] = system: SK-OV-3 cell line; test: solid tumor cell growth inhibition, MTT; assay type: cell-based; conditions: Homo sapiens; for IC50: SK-OV-3, 72 h; for inhibition at 16 µg/mL: SK-OV-3, 16 μg/mL compound, 72 h, read-out: IR (cell proliferation inhibition rate)
How it was run: as §1

[7] = system: PC-3 cell line; test: solid tumor cell growth inhibition, MTT; assay type: cell-based; conditions: Homo sapiens; for IC50: PC-3, 72 h; for inhibition at 16 µg/mL: PC-3, 16 μg/mL compound, 72 h, read-out: IR (cell proliferation inhibition rate)
How it was run: as §1

[8] = system: PANC-1 cell line; test: solid tumor cell growth inhibition, MTT; assay type: cell-based; conditions: Homo sapiens; for IC50: PANC-1, 72 h; for inhibition at 16 µg/mL: PANC-1, 16 μg/mL compound, 72 h, read-out: IR (cell proliferation inhibition rate)
How it was run: as §1

[9] = system: U87 MG cell line; test: solid tumor cell growth inhibition, MTT; assay type: cell-based; conditions: Homo sapiens, U-87 MG, 72 h; for inhibition at 16 µg/mL: 16 μg/mL compound, read-out: IR (cell proliferation inhibition rate)
How it was run: as §1

[10] = system: MG-63 cell line; test: solid tumor cell growth inhibition, MTT; assay type: cell-based; conditions: Homo sapiens; for IC50: MG-63, 72 h; for inhibition at 16 µg/mL: MG-63, 16 μg/mL compound, 72 h, read-out: IR (cell proliferation inhibition rate)
How it was run: as §1

[11] = system: A549 cell line; test: solid tumor cell growth inhibition, MTT; assay type: cell-based; conditions: Homo sapiens; for IC50: A549, 72 h; for inhibition at 16 µg/mL: A549, 16 μg/mL compound, 72 h, read-out: IR (cell proliferation inhibition rate)
How it was run: as §1

[12] = system: RKO cell line; test: solid tumor cell growth inhibition, MTT; assay type: cell-based; conditions: Homo sapiens, 72 h; for inhibition at 16 µg/mL: 16 μg/mL compound, read-out: IR (cell proliferation inhibition rate)
How it was run: as §1

[13] = system: Hep-2 cell line; test: solid tumor cell growth inhibition, MTT; assay type: cell-based; conditions: Homo sapiens; for IC50: HEp-2, 72 h; for inhibition at 16 µg/mL: Hep-2, 16 μg/mL compound, 72 h, read-out: IR (cell proliferation inhibition rate)
How it was run: as §1

[14] = system: RPMI8226 cell line; test: multiple myeloma cell growth inhibition, MTT; assay type: cell-based; conditions: Homo sapiens, RPMI-8226; for inhibition at 16 µg/mL: RPMI8226, 16 μg/mL compound, 72 h, read-out: IR (cell proliferation inhibition rate); for IC50: RPMI8226, 72 h
How it was run: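 Viability was measured by MTT after a 72 h compound exposure (37° C, 5% CO2) of RPMI8226 myeloma cells seeded at 6000 per well in 1640 medium with 10% fetal bovine serum. Growth inhibition was expressed relative to untreated cells, taken as 0%.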

[15] = system: NB4 cell line; test: leukemia cell growth inhibition, MTT; assay type: cell-based; conditions: Homo sapiens, NB-4; for inhibition at 16 µg/mL: NB4, 16 μg/mL compound, 72 h, read-out: IR (cell proliferation inhibition rate); for IC50: NB4, 72 h
How it was run: (§2)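 Cells seeded at 6000/well, RPMI 1640 + 10% FBS; compound dilution series added; 72 h, 37° C, 5% CO2. Readout MTT; untreated control = 0% inhibition.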

[16] = system: Kasumi-1 cell line; test: leukemia cell growth inhibition, MTT; assay type: cell-based; conditions: Homo sapiens; for inhibition at 16 µg/mL: Kasumi-1, 16 μg/mL compound, 72 h, read-out: IR (cell proliferation inhibition rate); for IC50: Kasumi-1, 72 h
How it was run: as §2

[17] = system: K562/adr cell line; test: leukemia cell growth inhibition, MTT; assay type: cell-based; conditions: Homo sapiens, 72 h; for IC50: K562/Adr; for inhibition at 16 µg/mL: K562/adr, 16 μg/mL compound, read-out: IR (cell proliferation inhibition rate)
How it was run: as §2

[18] = system: H9 cell line; test: leukemia cell growth inhibition, MTT; assay type: cell-based; conditions: Homo sapiens; for IC50: H9, 72 h; for inhibition at 16 µg/mL: H9, 16 μg/mL compound, 72 h, read-out: IR (cell proliferation inhibition rate)
How it was run: as §2

[19] = system: Jurkat cell line; test: leukemia cell growth inhibition, MTT; assay type: cell-based; conditions: Homo sapiens, 72 h; for inhibition at 16 µg/mL: 16 μg/mL compound, read-out: IR (cell proliferation inhibition rate)
How it was run: as §2

[20] = system: Hep G2 cell line; test: solid tumor cell growth inhibition, MTT; assay type: cell-based, human; conditions: Homo sapiens; for inhibition at 16 µg/mL: HepG2, 72 h, Hep G2, 16 μg/mL compound, 72 h, read-out: IR (cell proliferation inhibition rate); for IC50: HepG2, Hep G2, 72 h
How it was run: as §1

IC50 [1]	IC50 [2]	IC50 [3]	IC50 [4]	IC50 [5]	IC50 [6]	IC50 [7]	IC50 [8]	IC50 [9]	IC50 [10]	Compound	inhibition at 16 µg/mL [1]	inhibition at 16 µg/mL [2]	inhibition at 16 µg/mL [3]	inhibition at 16 µg/mL [4]	inhibition at 16 µg/mL [5]	inhibition at 16 µg/mL [6]	inhibition at 16 µg/mL [7]	inhibition at 16 µg/mL [8]	inhibition at 16 µg/mL [9]	inhibition at 16 µg/mL [10]	other results
> 16 µg/mL	> 16 µg/mL	> 16 µg/mL	> 16 µg/mL	> 16 µg/mL	> 16 µg/mL	> 16 µg/mL	> 16 µg/mL	> 16 µg/mL	> 16 µg/mL	COCCCNC(=O)C1C[C@]2(C)[C@H]3CC=C4[C@@H]5CC(C)(C)CC[C@]5(C(=O)OC)CC[C@@]4(C)[C@]3(C)CC[C@H]2C(C)(C)C1=O (stereo partly drawn) [BS-OA-052]	25.6%	-12.7%	9.9%	-12%	-8%	29.5%	25.4%	8.4%	10.9%	-33.5%	IC50 [11]: > 16 µg/mL; inhibition at 16 µg/mL [11]: 3.1%; inhibition at 16 µg/mL [12]: -48.6%; IC50 [12]: > 16 µg/mL; IC50 [13]: > 16 µg/mL; inhibition at 16 µg/mL [13]: -11.3%; inhibition at 16 µg/mL [14]: 25.2%; IC50 [14]: > 16 µg/mL; inhibition at 16 µg/mL [15]: 46.7%; IC50 [15]: 16 µg/mL (≈ 27.4 µM); inhibition at 16 µg/mL [16]: 19%; IC50 [16]: > 16 µg/mL; IC50 [17]: 12.3 µg/mL (≈ 21 µM); inhibition at 16 µg/mL [17]: 64%; IC50 [18]: > 16 µg/mL; inhibition at 16 µg/mL [18]: 38%; inhibition at 16 µg/mL [19]: -5%; IC50 [19]: > 16 µg/mL; inhibition at 16 µg/mL [20]: 10%; IC50 [20]: > 16 µg/mL
15.8 µg/mL (≈ 25.7 µM)	> 16 µg/mL	> 16 µg/mL	> 16 µg/mL	> 16 µg/mL	> 16 µg/mL	> 16 µg/mL	> 16 µg/mL	> 16 µg/mL	> 16 µg/mL	COC(=O)[C@]12CCC(C)(C)CC1C1=CCC3[C@@]4(C)CC(C(=O)NCCc5ccccn5)C(=O)C(C)(C)C4CC[C@@]3(C)[C@]1(C)CC2 (stereo partly drawn) [BS-OA-032]	57%	14.1%	23.6%	4.1%	22%	26.3%	32.5%	14.5%	30.4%	4.7%	IC50 [11]: > 16 µg/mL; inhibition at 16 µg/mL [11]: -6.6%; inhibition at 16 µg/mL [12]: -5.3%; IC50 [12]: > 16 µg/mL; IC50 [13]: > 16 µg/mL; inhibition at 16 µg/mL [13]: 5.2%; inhibition at 16 µg/mL [14]: 30.3%; IC50 [14]: > 16 µg/mL; inhibition at 16 µg/mL [15]: 85.2%; IC50 [15]: 9.82 µg/mL (≈ 15.9 µM); inhibition at 16 µg/mL [16]: 48.6%; IC50 [16]: 16 µg/mL (≈ 25.9 µM); IC50 [17]: 12.9 µg/mL (≈ 20.9 µM); inhibition at 16 µg/mL [17]: 63.7%; IC50 [18]: 13.6 µg/mL (≈ 22 µM); inhibition at 16 µg/mL [18]: 62.3%; inhibition at 16 µg/mL [19]: 75.4%; IC50 [19]: 10.8 µg/mL (≈ 17.6 µM); inhibition at 16 µg/mL [20]: 23.7%; IC50 [20]: > 16 µg/mL
9.28 µg/mL (≈ 14.9 µM)	7.32 µg/mL (≈ 11.8 µM)	8.46 µg/mL (≈ 13.6 µM)	> 16 µg/mL	8.88 µg/mL (≈ 14.3 µM)	9.14 µg/mL (≈ 14.7 µM)	9.91 µg/mL (≈ 15.9 µM)	8.77 µg/mL (≈ 14.1 µM)	10 µg/mL (≈ 16.1 µM)	8.37 µg/mL (≈ 13.4 µM)	COC(=O)[C@]12CCC(C)(C)C[C@H]1C1=CC[C@@H]3[C@@]4(C)CC(C(=O)NCCN5CCCCC5)C(=O)C(C)(C)[C@@H]4CC[C@@]3(C)[C@]1(C)CC2 (stereo partly drawn) [BS-OA-004]	99.4%	98.1%	97.3%	43.9%	81.2%	94.9%	89.8%	94.1%	98%	99%	IC50 [11]: 7.7 µg/mL (≈ 12.4 µM); inhibition at 16 µg/mL [11]: 92%; inhibition at 16 µg/mL [12]: 98.9%; IC50 [12]: 7.4 µg/mL (≈ 11.9 µM); IC50 [13]: 10.1 µg/mL (≈ 16.2 µM); inhibition at 16 µg/mL [13]: 85.5%; inhibition at 16 µg/mL [14]: 98.3%; IC50 [14]: 2.08 µg/mL (≈ 3.34 µM); inhibition at 16 µg/mL [15]: 100%; IC50 [15]: 2.84 µg/mL (≈ 4.56 µM); inhibition at 16 µg/mL [16]: 99.6%; IC50 [16]: 6.5 µg/mL (≈ 10.4 µM); IC50 [17]: 2.41 µg/mL (≈ 3.87 µM); inhibition at 16 µg/mL [17]: 98.3%; IC50 [18]: 5.67 µg/mL (≈ 9.1 µM); inhibition at 16 µg/mL [18]: 98.2%; inhibition at 16 µg/mL [19]: 97.7%; IC50 [19]: 6.15 µg/mL (≈ 9.87 µM); inhibition at 16 µg/mL [20]: 100%; IC50 [20]: 4.89 µg/mL (≈ 7.85 µM)
